Reference: patent EP0112419A1, “Pharmacologically active naphthotriazole derivatives” (BEECHAM GROUP PLC, priority 1982, dated 1984)

System: rat passive peritoneal anaphylaxis
Assay: Rat passive peritoneal anaphylaxis (PPA)
Type: in vivo
Settings: for Concentration in peritoneal fluid as % of mean of controls (Mean ± SEM, 5-7 rats per group) Dye: Pontamine Sky Blue, OD at 625 nm; for Concentration in peritoneal fluid as % of mean of controls (Mean ± SEM, 5-7 rats per group) Histamine: fluid collected 5 min after challenge
Description: • a) inhibit rat passive peritoneal anaphylaxis; and • b) antagonise the spasmogenic effects of slow reacting substance of anaphylaxis, SRS-A, on isolated guinea pig ileum.
Charles River Sprague Dawley male rats of 250 - 300 g. and Dunkin Hartley male white guinea pigs of 250 - 300 g. were used. v
The method has been described previously. (Ross, Janet W., Smith, H. and Spicer, Barbara A. Increased vascular permeability during passive peritoneal anaphylaxis in the rat. Int. Arch. Allergy appl. Immun., 51, 226, 1976).
Rats were sensitised by giving an intraperitoneal injection of 0.5 ml of Bordetella pertussis vaccine (4 x 10^10 organisms/ml Burroughs Wellcome, London) and a subcutaneous injection of 0.5 ml of an emulsion of 100 mg of ovalbumin (chicken egg albumin, crystallised and lyophilised, grade 3, Sigma, London) in 2 ml of isotonic saline and 3 ml of Freund's incomplete adjuvant (Difco Laboratories, Michigan, USA) .
The rats were bled by cardiac puncture, on day 18, the blood was pooled, and the serum separated, stored at -20°C and thawed only once before use.
Rats were each given an intraperitoneal injection of 2 ml of a 1:5 dilution of the rat anti-serum in isotonic saline. Two hours later 0.3 ml of a 5% solution of Pontamine Sky Blue (Raymond A. Lamb, London) in isotonic saline was injected intravenously, followed by an intraperitoneal injection of the test compound in 1 ml of saline; (control rats received 1 ml of saline); followed 30 seconds later by an intraperitoneal injection of 5 ml of Tyrode's solution containing […]/ml heparin and 0.4 mg/ml of ovalbumin. The concentrations of the compounds were quoted as those in the 6 ml of fluid injected intraperitoneally. Exactly five minutes after challenge the rats were stunned and bled and their peritoneal fluids were collected by,opening their peritoneal cavities over funnels into polycarbonate tubes in ice. The supernatants were separated from the cellular residue by centrifuging at 150 g. for five minutes and were retained for assay of dye and histamine. Any samples obviously contaminated with blood were not used for estimation of dye. Groups of at least five rats were used for each dose of compound and the treatments were randomised.
Dye was assayed within two hours by measurement of optical density (OD) at 625 nm.
For histamine assay 0.5 ml samples of the supernatants were added to 1 ml volumes of 12% trichloracetic acid and stored at -20°C. The deproteinised samples were assayed using an automated spectrofluorimetric system (Technicon Autoanalyser) by a method similar to that of Evans, D.P., Lewis, J.A. and Thomson, D.S.: (An automated fluorimetric assay for the rapid determination of histamine in biological fluids. Life Sci., 12, 327, 1973).

[1] = conc. injected i.p. 2 x 10^-5 M
[2] = conc. injected i.p. 2 x 10^-6 M
[3] = conc. injected i.p. 2 x 10^-7 M
[4] = conc. injected i.p. 2 x 10^-8 M

Row | Compound | Concentration in peritoneal fluid as % of mean of controls (Mean ± SEM, 5-7 rats per group) Dye [1] [%] | Concentration in peritoneal fluid as % of mean of controls (Mean ± SEM, 5-7 rats per group) Histamine [1] [%] | Concentration in peritoneal fluid as % of mean of controls (Mean ± SEM, 5-7 rats per group) Dye [2] [%] | Concentration in peritoneal fluid as % of mean of controls (Mean ± SEM, 5-7 rats per group) Histamine [2] [%] | Concentration in peritoneal fluid as % of mean of controls (Mean ± SEM, 5-7 rats per group) Dye [3] [%] | Concentration in peritoneal fluid as % of mean of controls (Mean ± SEM, 5-7 rats per group) Histamine [3] [%] | Concentration in peritoneal fluid as % of mean of controls (Mean ± SEM, 5-7 rats per group) Dye [4] [%] | Concentration in peritoneal fluid as % of mean of controls (Mean ± SEM, 5-7 rats per group) Histamine [4] [%]
1 | CCCc1c(OCCCOc2ccc3c(c2)C(=O)c2nn[nH]c2C3=O)ccc(C(C)=O)c1O [Example 1 and 2, 6-[3-(4-Acetyl-3-hydroxy-2-n-propylphenoxy)propoxy]-4,9-dihydro-4,9-dioxo-1H-naphtho[2,3-d]-v-triazole] | 32 ± 5 | 10 ± 1 | 58 ± 8 | 27 ± 8 | 63 ± 5 | 57 ± 11 |  | 
2 | CCCc1c(OCCCOc2cccc3c2C(=O)c2nn[nH]c2C3=O)ccc(C(C)=O)c1O [Example 3, 5-[3-(4-Acetyl-3-hydroxy-2-n-propylphenoxy)-pro^poxy]-4,9-dihydro-4,9-dioxo-1H-naphtho[2,3-d]-v-triazole] | 57 ± 4 | 25 ± 3 | 94 ± 8 | 62 ± 11 |  |  |  | 
3 | CCCc1c(OCC(O)COc2ccc3c(c2)C(=O)c2nn[nH]c2C3=O)ccc(C(C)=O)c1O (centres unmarked) [Example 4, 6-[3-(4-Acetyl-3-hydroxy-2-n-propylphenoxy)-2-hydroxy-pronoxy]-4,9-dihydro-4,9-dioxo-1H-naphtho[2,3-d]-v-triazole] |  |  |  |  | 58 ± 4 | 38 ± 4 | 72 ± 11 | 64 ± 11
